Measured values: patent US12312333B2, “SK channel positive allosteric modulators” (Chapman University, priority 2021, dated 2025)
“Also recorded” adds a separate entry of the source. One block for each molecule: values may come before it.

Experiments:
rat KCa2.2a [1] = biological target: T1, rat KCa2.2a (UniProt P0DP23+P70604); assay: Inside-out patch-clamp potentiation of KCa2.2a channels expressed in HEK293 cells; type: cell-based; conditions: for Emax: current at −90 mV at maximal compound concentration normalized to 10 μM Ca2+, read-out: Emax on KCa2.2a channels (I/Imax); for EC50: HEK293, 0.15 μM Ca2+, current at −90 mV, read-out: EC50 (mean ± SEM, μM) on potentiating KCa2.2a channels; for efficacy (Emax) on KCa2.2a channels: normalized to 10 μM Ca2+
T1 construct: expressed in transfected cells; host or cells: HEK293
Experimental: The impact of adding one substituent group at C4 of the cyclohexane moiety of CyPPA with either electron donating (OH (2a), NH2 (2b), CH2OH (2c), and OCH3 (2d)) or electron-withdrawing groups (F (2e) and NO2 (2f)) was explored. The potency of the newly synthesized compounds compared to the template CyPPA was measured via inside-out patch clamp electrophysiology recordings with KCa2.2a channels heterologously expressed in HEK293 cells (FIG. 1A). […] The responses induced by 10 μM Ca^2+ are considered the maximal currents of the KCa2.2a channels. To evaluate the efficacy (Emax) of compounds on KCa2.2a channels, the current amplitudes at −90 mV in response to the maximal concentration of compounds were normalized to that obtained at 10 μM Ca^2+ (I/Imax (%), FIG. 1C).
The effect of newly synthesized compounds on the KCa2.x/KCa3.1 channels was investigated as previously described (Nam, Y. W.; et al, Acta Physiol (Oxf) 2020, e13552; Nam, Y. W.; et al. Scientific reports 2018, 8 (1), 10749). Briefly, the rat KCa2.2a, human KCa2.1, human KCa2.3 or human KCa3.1 channels cDNA constructs were either generated in-house or through molecular cloning services (Genscript). The channel cDNAs, along with CaM and GFP, at a ratio of 7:4:2 (ORF ratios), were transfected into HEK293 cells by the calcium-phosphate method. KCa currents were recorded 1-2 days after transfection, with an Axon200B amplifier (Molecular Devices) at room temperature. The resistance of the patch electrodes ranged from 3-5 MΩ. The pipette solution contained (in mM): 140 KCl, 10 Hepes (pH 7.4), 1 MgSO4. The bath solution containing (in mM): 140 KCl, 10 Hepes (pH 7.2), 1 EGTA, 0.1 Dibromo-BAPTA, and 1 HEDTA was mixed with Ca^2+ to obtain the desired free Ca^2+ concentrations, calculated using the software by Chris Patton of Stanford University (https://somapp.ucdmc.ucdavis.edu/pharmacology/bers/maxchelator/webmaxc/webmaxcS.htm). The Ca^2+ concentrations were verified using a Ca^2+ calibration buffer kit (Thermo Fisher Scientific). Briefly, a standard curve was generated using the Ca^2+ buffers from the kit and a fluorescence Ca^2+ indicator. Then, the Ca^2+ concentrations of the bath solution were determined through interpolation on the standard curve.
High resistance seals (>1 GΩ) were formed before inside-out patches were obtained. The seal resistance of inside-out patches was >1 GΩ, when the intracellular face was initially exposed to a zero-Ca^2+ bath solution. Currents were recorded by repetitive 1-s-voltage ramps from −100 mV to +100 mV from a holding potential of 0 mV. The currents were filtered at 2 kHz and digitized at a sampling frequency of 10 kHz. At the end of experiment, the integrity of the patch was examined by switching the bath solution back to the zero-Ca^2+ buffer. Data from patches, which maintained the seal resistance (>1 GΩ) after solution changes, were used for further analysis.
To measure the effect of CyPPA (Alomone Labs) and newly synthesized compounds, the intracellular face was exposed to bath solutions with 0.15 μM Ca^2+. One minute after switching of bath solutions, ten sweeps with a 1-s interval were recorded at a series of concentrations of compound in the presence of 0.15 μM Ca^2+. The maximal KCa2.x/KCa3.1 current in response to 10 μM Ca^2+ was then recorded.
Patch-clamp recordings were analyzed using Clampfit 10.5 (Molecular Devices LLC) and concentration-response curves were analyzed in GraphPad Prism 9.0.2 (GraphPad Software Inc.). To construct the concentration-dependent potentiation of channel activities by compound, the current amplitudes at −90 mV in response to various concentrations of the compound were normalized to that obtained at a maximal concentration of compound. The normalized currents were plotted as a function of the concentrations of the compound. EC50 values and Hill coefficients were determined by fitting the data points to a standard concentration-response curve (Y=100/(1+(X/EC50)^−Hill)). […]

[2] = Solubility noted during patch-clamp concentration-response; type: physicochemical; conditions: bath solution, 200 μM
human KCa2.3 channels = biological target: T2, human KCa2.3 channels (Homo sapiens, UniProt P0DP23+Q9UGI6); conditions: cited from earlier work
T2 construct: expressed in transfected cells; host or cells: HEK293

rat KCa2.2a [3] = biological target: T1, rat KCa2.2a; conditions: KCa2.2/KCa2.3 vs KCa2.1/KCa3.1; cited from earlier work

Emax (rat KCa2.2a [1]; HEK293): 50 ± 5.78% | EC50 (rat KCa2.2a [1]; inside-out patch): 37.6 ± 3.66 µM | efficacy (Emax) on KCa2.2a channels (rat KCa2.2a [1]): reduced efficacy | solubility [2]: limited solubility at 200 μM
Molecule: Cc1cc(Nc2cc(C(=O)O)ccc2F)nc(-n2nc(C)cc2C)n1 [Compound 2v, 3-((2-(3,5-Dimethyl-1H-pyrazol-1-yl)-6-methylpyrimidin-4-yl)amino)-4-fluorobenzoic acid]

Emax (rat KCa2.2a [1]; HEK293): 82.4 ± 4.91% | EC50 (rat KCa2.2a [1]; inside-out patch): 7.48 ± 0.56 µM
Molecule: Cc1cc(NC2CCCCC2)nc(-n2nc(C)cc2C)n1 [CyPPA, N-cyclohexyl-2-(3,5-dimethyl-1H-pyrazol-1-yl)-6-methylpyrimidin-4-amine]
potency on KCa2.3 compared to KCa2.2a channels, background statement (human KCa2.3 channels): slightly but significantly higher potency on KCa2.3 channels than KCa2.2a channels | subtype selectivity, previously reported (rat KCa2.2a [3]): selectively potentiates KCa2.2a and KCa2.3, but not KCa2.1 and KCa3.1 channel subtypes; also recorded: potentiate the KCa2.2 and KCa2.3, but not the KCa2.1 and KCa3.1 channel subtypes

Molecule: N^1-(3-Chloro-4-fluorophenyl)-2-(3,5-dimethyl-1H-pyrazol-1-yl)pyrimidine-4,6-diamine [Compound 4]
activity / potency on KCa2.2a channels (rat KCa2.2a [1]; inside-out patch, HEK293): reduced potency | EC50 (rat KCa2.2a [1]; inside-out patch): 6.59 ± 0.64 µM | efficacy (Emax) on KCa2.2a channels (rat KCa2.2a [1]): retaining their efficacy

Molecule: N^1-(3-Chloro-4-fluorophenyl)-6-(3,5-dimethyl-1H-pyrazol-1-yl)pyrimidine-2,4-diamine [Compound 3b]
EC50 (rat KCa2.2a [1]; inside-out patch): > 100 µM

Molecule: N^1-(3-Chlorophenyl)-6-(3,5-dimethyl-1H-pyrazol-1-yl)pyrimidine-2,4-diamine [Compound 3a]
EC50 (rat KCa2.2a [1]; inside-out patch): > 100 µM

Molecule: N^1-(4-Chloro-2-fluorophenyl)-6-(3,5-dimethyl-1H-pyrazol-1-yl)pyrimidine-2,4-diamine [Compound 3d]
EC50 (rat KCa2.2a [1]; inside-out patch): > 100 µM

Molecule: N^1-(5-Chloro-2-fluorophenyl)-6-(3,5-dimethyl-1H-pyrazol-1-yl)pyrimidine-2,4-diamine [Compound 3c]
EC50 (rat KCa2.2a [1]; inside-out patch): > 100 µM
